ChEMBL document CHEMBL4828769, “Discovery of AS-0141, a Potent and Selective Inhibitor of CDC7 Kinase for the Treatment of Solid Cancers” (J Med Chem, 2021)

Test system: not listed separately
Test: Inhibition of human CDC7/ASK using FITC-labelled MCM2 substrate in presence of 5 uM of ATP
Conditions: not given

SMILES	IC50 [µM]
CCOC(=O)C1=C(N2CCCCCC2)O/C(=C\c2c[nH]c3ncccc23)C1=O	0.0056
CCOC(=O)C1=C(N(C)C2CCCCC2)O/C(=C\c2c[nH]c3ncccc23)C1=O	0.0095
CCOC(=O)C1=C(NC2CCCC2)O/C(=C\c2c[nH]c3ncccc23)C1=O	0.013
CCOC(=O)C1=C(N2CCC(O)CC2)O/C(=C\c2c[nH]c3ncccc23)C1=O	0.014
CCOC(=O)C1=C(NN2CCN(CCO)CC2)O/C(=C\c2c[nH]c3ncccc23)C1=O	0.01
CCOC(=O)C1=C(N2CCN(CCO)CC2)O/C(=C\c2c[nH]c3ncccc23)C1=O	0.072
CCOC(=O)C1=C(NN2CCCC2)O/C(=C\c2c[nH]c3ncccc23)C1=O	0.0069
CCOC(=O)C1=C(NC(C)C)O/C(=C\c2c[nH]c3ncccc23)C1=O	0.021
CCOC(=O)C1=C(N2CCCCC2)O/C(=C\c2c[nH]c3ncccc23)C1=O	0.016
CCOC(=O)C1=C(NN(C)C2CCCCC2)O/C(=C\c2c[nH]c3ncccc23)C1=O	0.0059
CCOC(=O)C1=C(NN2CCN(C)CC2)O/C(=C\c2c[nH]c3ncccc23)C1=O	0.012
CCOC(=O)C1=C(NN(CC)CC)O/C(=C\c2c[nH]c3ncccc23)C1=O	0.0069
CCOC(=O)C1=C(NCCOC)O/C(=C\c2c[nH]c3ncccc23)C1=O	0.084
CCNC1=C(C(=O)OCC)C(=O)/C(=C/c2c[nH]c3ncccc23)O1	0.032

Second part, the molecule after the results:

IC50 [µM]	SMILES
0.0077	CCOC(=O)C1=C(NC2CCCCC2)O/C(=C\c2c[nH]c3ncccc23)C1=O
0.015	CCOC(=O)C1=C(N2CCC(CO)CC2)O/C(=C\c2c[nH]c3ncccc23)C1=O
0.133	CCOC(=O)C1=C(N2CCCN(C)CC2)O/C(=C\c2c[nH]c3ncccc23)C1=O
0.093	CCOC(=O)C1=C(NC2CCN(C)CC2)O/C(=C\c2c[nH]c3ncccc23)C1=O
0.005	CCOC(=O)C1=C(NN2CCCCCC2)O/C(=C\c2c[nH]c3ncccc23)C1=O
0.0024	CCOC(=O)C1=C(Nc2ccccc2Cl)O/C(=C\c2c[nH]c3ncccc23)C1=O
0.035	CCOC(=O)C1=C(N2CCOCC2)O/C(=C\c2c[nH]c3ncccc23)C1=O
0.0029	CCOC(=O)C1=C(NN2CCOCC2)O/C(=C\c2c[nH]c3ncccc23)C1=O
0.538	CCOC(=O)C1=C(NCCN(C)C)O/C(=C\c2c[nH]c3ncccc23)C1=O

Test system: not listed separately
Test: Inhibition of human CDC7/ASK using FITC-labelled MCM2 substrate in presence of 1 mM of ATP
Conditions: not given

SMILES	IC50 [µM]
CCOC(=O)C1=C(N2CCCCCC2)O/C(=C\c2c[nH]c3ncccc23)C1=O	0.394
CCOC(=O)C1=C(N(C)C2CCCCC2)O/C(=C\c2c[nH]c3ncccc23)C1=O	0.954
CCOC(=O)C1=C(NC2CCCC2)O/C(=C\c2c[nH]c3ncccc23)C1=O	1.47
CCOC(=O)C1=C(N2CCC(O)CC2)O/C(=C\c2c[nH]c3ncccc23)C1=O	1.26
CCOC(=O)C1=C(NN2CCN(CCO)CC2)O/C(=C\c2c[nH]c3ncccc23)C1=O	0.543
CCOC(=O)C1=C(N2CCN(CCO)CC2)O/C(=C\c2c[nH]c3ncccc23)C1=O	6.01
CCOC(=O)C1=C(NN2CCCC2)O/C(=C\c2c[nH]c3ncccc23)C1=O	0.694
CCOC(=O)C1=C(N2CCCCC2)O/C(=C\c2c[nH]c3ncccc23)C1=O	0.856
CCOC(=O)C1=C(NN(C)C2CCCCC2)O/C(=C\c2c[nH]c3ncccc23)C1=O	0.41
CCOC(=O)C1=C(NN2CCN(C)CC2)O/C(=C\c2c[nH]c3ncccc23)C1=O	1.07
CCOC(=O)C1=C(NN(CC)CC)O/C(=C\c2c[nH]c3ncccc23)C1=O	0.396

Next, values leading:

IC50 [µM]	SMILES
0.667	CCOC(=O)C1=C(NC2CCCCC2)O/C(=C\c2c[nH]c3ncccc23)C1=O
1.34	CCOC(=O)C1=C(N2CCC(CO)CC2)O/C(=C\c2c[nH]c3ncccc23)C1=O
> 10	CCOC(=O)C1=C(N2CCCN(C)CC2)O/C(=C\c2c[nH]c3ncccc23)C1=O
0.451	CCOC(=O)C1=C(NN2CCCCCC2)O/C(=C\c2c[nH]c3ncccc23)C1=O
0.278	CCOC(=O)C1=C(Nc2ccccc2Cl)O/C(=C\c2c[nH]c3ncccc23)C1=O
2.68	CCOC(=O)C1=C(N2CCOCC2)O/C(=C\c2c[nH]c3ncccc23)C1=O
0.364	CCOC(=O)C1=C(NN2CCOCC2)O/C(=C\c2c[nH]c3ncccc23)C1=O

Test system: not listed separately
Test: Inhibition of human CDC7/ASK using FITC-labelled MCM2 substrate preincubated for 30 mins followed by substrate addition and measured after 5 hrs in presence of 1 mM of ATP
Conditions: not given

SMILES	IC50 [µM]
CCOC(=O)C1=C(N2CCCCCC2)O/C(=C\c2c[nH]c3ncccc23)C1=O	0.0039
CCOC(=O)C1=C(N(C)C2CCCCC2)O/C(=C\c2c[nH]c3ncccc23)C1=O	0.023
CCOC(=O)C1=C(N2CCC(O)CC2)O/C(=C\c2c[nH]c3ncccc23)C1=O	0.023
CCOC(=O)C1=C(NN2CCN(CCO)CC2)O/C(=C\c2c[nH]c3ncccc23)C1=O	0.0013
CCOC(=O)C1=C(NN2CCCC2)O/C(=C\c2c[nH]c3ncccc23)C1=O	0.0011
CCOC(=O)C1=C(NN(C)C2CCCCC2)O/C(=C\c2c[nH]c3ncccc23)C1=O	0.002
CCOC(=O)C1=C(NN2CCN(C)CC2)O/C(=C\c2c[nH]c3ncccc23)C1=O	0.0045
CCOC(=O)C1=C(NN(CC)CC)O/C(=C\c2c[nH]c3ncccc23)C1=O	0.0024
CCOC(=O)C1=C(NCCOC)O/C(=C\c2c[nH]c3ncccc23)C1=O	> 10

Next, values leading:

IC50 [µM]	SMILES
0.053	CCOC(=O)C1=C(NC2CCCCC2)O/C(=C\c2c[nH]c3ncccc23)C1=O
0.01	CCOC(=O)C1=C(N2CCC(CO)CC2)O/C(=C\c2c[nH]c3ncccc23)C1=O
> 10	CCOC(=O)C1=C(N2CCCN(C)CC2)O/C(=C\c2c[nH]c3ncccc23)C1=O
0.0009	CCOC(=O)C1=C(NN2CCCCCC2)O/C(=C\c2c[nH]c3ncccc23)C1=O
0.0006	CCOC(=O)C1=C(Nc2ccccc2Cl)O/C(=C\c2c[nH]c3ncccc23)C1=O
0.00015	CCOC(=O)C1=C(NN2CCOCC2)O/C(=C\c2c[nH]c3ncccc23)C1=O

Molecular target: Cell division cycle 7-related protein kinase (Homo sapiens, UniProt O00311)
Test: Inhibition of CDC7 in human COLO205 cells assessed as reduction in MCM2 phosphorylation at S53 residue at 0.1 uM incubated for 48 hrs by Western blot analysis relative to control
Assay type: cell-based
Conditions: COLO 205

Cell division cycle 7-related protein kinase, sequence (O00311 whole entry, looked up): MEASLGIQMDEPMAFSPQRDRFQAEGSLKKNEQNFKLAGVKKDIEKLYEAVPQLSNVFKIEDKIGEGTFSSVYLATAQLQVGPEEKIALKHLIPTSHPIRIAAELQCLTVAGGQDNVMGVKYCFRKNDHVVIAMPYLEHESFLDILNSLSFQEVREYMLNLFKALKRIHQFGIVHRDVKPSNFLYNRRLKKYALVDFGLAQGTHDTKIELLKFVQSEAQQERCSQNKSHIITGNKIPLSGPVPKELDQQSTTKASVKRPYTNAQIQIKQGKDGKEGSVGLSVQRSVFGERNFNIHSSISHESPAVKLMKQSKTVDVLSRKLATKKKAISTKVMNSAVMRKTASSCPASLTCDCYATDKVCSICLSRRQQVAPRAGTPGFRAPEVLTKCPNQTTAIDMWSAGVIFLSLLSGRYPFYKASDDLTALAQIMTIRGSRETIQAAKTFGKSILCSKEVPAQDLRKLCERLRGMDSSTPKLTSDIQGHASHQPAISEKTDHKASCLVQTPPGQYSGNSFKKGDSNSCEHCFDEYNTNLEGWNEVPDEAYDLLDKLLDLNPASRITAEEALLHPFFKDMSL

SMILES	inhibition [%]
CCOC(=O)C1=C(NN2CCN(CCO)CC2)O/C(=C\c2c[nH]c3ncccc23)C1=O	18
CCOC(=O)C1=C(NN2CCCC2)O/C(=C\c2c[nH]c3ncccc23)C1=O	100
CCOC(=O)C1=C(NN(C)C2CCCCC2)O/C(=C\c2c[nH]c3ncccc23)C1=O	35
CCOC(=O)C1=C(NN2CCN(C)CC2)O/C(=C\c2c[nH]c3ncccc23)C1=O	63
CCOC(=O)C1=C(NN(CC)CC)O/C(=C\c2c[nH]c3ncccc23)C1=O	67

The remaining lines, values ahead:

inhibition [%]	SMILES
100	CCOC(=O)C1=C(NN2CCCCCC2)O/C(=C\c2c[nH]c3ncccc23)C1=O
70	CCOC(=O)C1=C(NN2CCOCC2)O/C(=C\c2c[nH]c3ncccc23)C1=O

Test system: COLO 205
Test: Induction of cell cycle arrest in human COLO205 cells assessed as accumulation of cells at sub-G1 phase at 1 uM incubated for 48 hrs by propidium iodide staining based flow cytometry analysis
Assay type: functional
Conditions: not given

SMILES	Activity [%]
CCOC(=O)C1=C(NN2CCN(CCO)CC2)O/C(=C\c2c[nH]c3ncccc23)C1=O	0
CCOC(=O)C1=C(NN2CCCC2)O/C(=C\c2c[nH]c3ncccc23)C1=O	17.4
CCOC(=O)C1=C(NN2CCCCCC2)O/C(=C\c2c[nH]c3ncccc23)C1=O	23.2
CCOC(=O)C1=C(NN(C)C2CCCCC2)O/C(=C\c2c[nH]c3ncccc23)C1=O	33
CCOC(=O)C1=C(NN2CCN(C)CC2)O/C(=C\c2c[nH]c3ncccc23)C1=O	15.9
CCOC(=O)C1=C(NN(CC)CC)O/C(=C\c2c[nH]c3ncccc23)C1=O	14.5
CCOC(=O)C1=C(NN2CCOCC2)O/C(=C\c2c[nH]c3ncccc23)C1=O	46.4

Test system: not listed separately
Test: Metabolic stability in human liver microsomes assessed as parent compound remaining after 30 mins
Assay type: ADME, Microsome
Conditions: microsomes, 0.5 h

SMILES	Stability
CCOC(=O)C1=C(N2CCCCCC2)O/C(=C\c2c[nH]c3ncccc23)C1=O	Unstable

Test system: not listed separately
Test: Metabolic stability in mouse liver microsomes assessed as parent compound remaining after 30 mins
Assay type: ADME, Microsome
Conditions: microsomes, 0.5 h

SMILES	Stability
CCOC(=O)C1=C(N2CCCCCC2)O/C(=C\c2c[nH]c3ncccc23)C1=O	Unstable
